Laboratory results taken from patent US12030896B2, “PIKfyve inhibitors” (Mayo Foundation for Medical Education and Research, priority 2018, dated 2024).
Like-named read-outs stand apart in the source and are kept apart here.

Key:
[1] = Pharmacokinetic study of Example 3 in mouse (IV, IP); type: in vivo, C57 Mouse; conditions: for concentration at 0.5 h: 0.50 h; for AUC(0-inf): read-out: AUCINF_pred; for Cmax: read-out: Cmax; for Tmax: read-out: Tmax
Protocol: Species: C57 Mouse. Dose Route: IV&IP. Formulation Vehicle: IV&IP: 10% DMSO/30% PEG400/60% Saline. Dose Level: IV (5 mg/kg) and IP (30 mg/kg). Dose Volume: IV (5 mL/kg) and IP (10 mL/kg). Formulation concentrations: IV (1 mg/mL) and IP (3 mg/mL). LLOQ: IV (2 ng/mL) and IP (10 ng/mL).

U251 glioblastoma cell = assay: Cell killing in combination with vemurafenib; type: cell-based, human
Protocol: A 25 mM stock of vemurafenib (obtained from Selleckchem) in DMSO was diluted to 2× the indicated concentration into the cell suspension immediately prior to plating the cell suspension onto the pre-diluted Example 1 or Example 3, to result in a final 1× concentration of both compounds.
See FIG. 13 for showing of U251 glioblastoma cell killing by Example 1 alone or in the presence of 10 μM vemurafenib over a 72 hour time course.

[2] = C57, mouse, plasma, intraperitoneal, 30 mg/kg, 30 mg/kg IP, mean, read-out: Plasma concentrations
[3] = C57, mouse, plasma, intraperitoneal, 30 mg/kg, 30 mg/kg IP, individual animals 201M-203M, read-out: Plasma concentrations
[4] = C57, mouse, plasma, intravenous, 5 mg/kg, 5 mg/kg IV, individual animals 101M-103M, read-out: Plasma concentrations
[5] = C57, mouse, plasma, intravenous, 5 mg/kg, 5 mg/kg IV, mean, read-out: Plasma concentrations
[6] = C57, mouse, plasma, ip, 30 mg/kg, 30 mg/kg IP, individual animals 201M-203M
[7] = C57, mouse, plasma, ip, 30 mg/kg, 30 mg/kg IP, mean
[8] = C57, mouse, plasma, iv, 5 mg/kg, 5 mg/kg IV, individual animals 101M-103M
[9] = C57, mouse, plasma, iv, 5 mg/kg, 5 mg/kg IV, mean

For `Cc1ccc(Nc2nc(N/N=C/c3c[nH]c4ccccc34)cc(N3CCOCC3)n2)cc1` [Example 3, (E)-4-(2-((1H-indol-3-yl)methylene)hydrazinyl)-6-morpholino-N-(p-tolyl)pyrimidin-2-amine], which concentration at 1 h [1, 2] is on record?
Its concentration at 1 h is 3030 ng/mL.

And the concentration at 2 h [1, 3]?
Its concentration at 2 h is 2830 ng/mL.

What about the concentration at 2 h [1, 2] of the same compound?
The concentration at 2 h was 3210 ng/mL.

What about the concentration at 4 h [1, 3] of the same compound?
Its concentration at 4 h is 1600 ng/mL.

And the concentration at 4 h [1, 2]?
The concentration at 4 h was 1890 ng/mL.

And the concentration at 8 h [1, 3]?
Its concentration at 8 h is 998 ng/mL.

And the concentration at 8 h [1, 2]?
The concentration at 8 h was 1220 ng/mL.

And the concentration at 24 h [1, 3]?
The concentration at 24 h was 107 ng/mL.

And the concentration at 24 h [1, 2]?
The concentration at 24 h was 146 ng/mL.

What about the concentration at 0.08 h ([1]; C57, mouse, plasma, intravenous, 5 mg/kg, 5 mg/kg IV, 0.08 h, mean, read-out: Plasma concentrations) of the same compound?
Its concentration at 0.08 h is 6900 ng/mL.

What about the concentration at 0.25 h ([1]; C57, mouse, plasma, intravenous, 5 mg/kg, 5 mg/kg IV, 0.25 h, mean, read-out: Plasma concentrations) of the same compound?
Its concentration at 0.25 h is 4530 ng/mL.

And the concentration at 0.5 h [1, 4]?
Its concentration at 0.5 h is 2080 ng/mL.

And the concentration at 0.5 h [1, 5]?
Its concentration at 0.5 h is 2180 ng/mL.

And the concentration at 1 h [1, 4]?
The concentration at 1 h was 1350 ng/mL.

And the concentration at 1 h [1, 5]?
Its concentration at 1 h is 1220 ng/mL.

What about the concentration at 2 h [1, 4] of the same compound?
Its concentration at 2 h is 309 ng/mL.

What about the concentration at 2 h [1, 5] of the same compound?
Its concentration at 2 h is 338 ng/mL.

And the concentration at 4 h [1, 4]?
The concentration at 4 h was 59 ng/mL.

And the concentration at 4 h [1, 5]?
The concentration at 4 h was 70.1 ng/mL.

What about the concentration at 8 h [1, 4] of the same compound?
Its concentration at 8 h is 26.5 ng/mL.

And the concentration at 8 h [1, 5]?
Its concentration at 8 h is 33.2 ng/mL.

What about the AUC(0-t) [1, 6] of the same compound?
Its AUC(0-t) is 21900 ng·h/mL.

And the MRT last [1, 6]?
The MRT last was 4.9 h.

What about the AUC(0-inf) [1, 6] of the same compound?
Its AUC(0-inf) is 22700 ng·h/mL.

And the Cmax [1, 6]?
Its Cmax is 2990 ng/mL.

And the half-life ([1]; C57, mouse, plasma, ip, 30 mg/kg, 30 mg/kg IP, individual animals 201M-203M, read-out: HL_Lambda_z (T1/2, h) (converted))?
The half-life was 5.29 h.

And the Tmax [1, 6]?
Its Tmax is 1 h.

And the AUC(0-t) [1, 7]?
Its AUC(0-t) is 25400 ng·h/mL.

And the MRT last [1, 7]?
The MRT last was 5.17 h.

And the bioavailability [1, 7]?
Its bioavailability is 92.7%.

And the AUC(0-inf) [1, 7]?
The AUC(0-inf) was 26600 ng·h/mL.

What about the Cmax [1, 7] of the same compound?
Its Cmax is 3270 ng/mL.

What about the half-life ([1]; C57, mouse, plasma, ip, 30 mg/kg, 30 mg/kg IP, mean, read-out: HL_Lambda_z (T1/2, h) (converted)) of the same compound?
The half-life was 5.55 h.

And the Tmax [1, 7]?
The Tmax was 1.33 h.

What about the half-life ([1]; C57, mouse, plasma, ip, 30 mg/kg, IP injection, single 30 mg/kg dose, read-out: half life (converted)) of the same compound?
Its half-life is roughly 5.5 h.

And the AUC(0-t) [1, 8]?
Its AUC(0-t) is 5480 ng·h/mL.

What about the MRT last [1, 8] of the same compound?
The MRT last was 0.63 h.

What about the AUC(0-inf) [1, 8] of the same compound?
Its AUC(0-inf) is 5500 ng·h/mL.

What about the half-life ([1]; C57, mouse, plasma, iv, 5 mg/kg, 5 mg/kg IV, individual animals 101M-103M, read-out: HL_Lambda_z (T1/2, h) (converted)) of the same compound?
The half-life was 0.85 h.

What about the AUC(0-t) [1, 9] of the same compound?
Its AUC(0-t) is 4580 ng·h/mL.

What about the MRT last [1, 9] of the same compound?
Its MRT last is 0.76 h.

What about the AUC(0-inf) [1, 9] of the same compound?
The AUC(0-inf) was 4610 ng·h/mL.

What about the Cmax [1, 9] of the same compound?
The Cmax was 6900 ng/mL.

What about the half-life ([1]; C57, mouse, plasma, iv, 5 mg/kg, 5 mg/kg IV, mean, read-out: HL_Lambda_z (T1/2, h) (converted)) of the same compound?
Its half-life is 0.89 h.

And the peak concentration ([1]; IP injection, single 30 mg/kg dose)?
The peak concentration was 3268 ng/mL.

And the “killing U251 in combination with vemurafenib” value (U251 glioblastoma cell)?
Its value is “synergistic”.
